Data taken from US20260001893A1, “SMALL MOLECULE MODULATORS OF STAT6” (Gilead Sciences, Inc., priority 2024, published 2026).

Test system: Eotaxin-3 (CCL26) release in human whole blood stimulated with IL-4
Experiment: Human whole blood eotaxin-3 assay (IL-4 stimulated eotaxin-3 release)
Type: cell-based
Conditions: Homo sapiens, 48 h, human whole blood stimulated with recombinant human IL-4, 48 h, geometric mean; for EC50: inhibition of eotaxin-3 release, given for test compounds with >80% Emax
Method in brief: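 Eotaxin-3 (CCL26) release was quantified by MSD immunoassay in supernatants of human heparinised whole blood after 48 h at 37° C with IL-4 ([…] final). Compounds, in 4-fold dilutions at 0.5% DMSO, were added 2 h before stimulation.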

In the case of `[2H]C([2H])([2H])N(C(=O)c1ccc(C2=CCN(Cc3cc4c(-n5ccc6c(c5=O)CCN6)ccnc4n3C)CC2)cc1)C([2H])([2H])[2H]` [Example 1af63, N,N-Bis(methyl-d3)-4-(1-((1-methyl-4-(4-oxo-1,2,3,4-tetrahydro-5H-pyrrolo[3,2-c]pyridin-5-yl)-1H-pyrrolo[2,3-b]pyridin-2-yl)methyl)-1,2,3,6-tetrahydropyridin-4-yl)benzamide], the Emax (given for test compounds with <80% Emax) is reported as 30 to 40%.
`C[C@@H](c1cc2c(-n3ccc4c(c3=O)CCN4)ccnc2n1C)N1CCC(c2ccc(C(=O)N(C)C)cc2)CC1` [Example 1m82, (S)—N,N-dimethyl-4-(1-(1-(1-methyl-4-(4-oxo-1,2,3,4-tetrahydro-5H-pyrrolo[3,2-c]pyridin-5-yl)-1H-pyrrolo[2,3-b]pyridin-2-yl)ethyl)piperidin-4-yl)benzamide] gave an EC50 of 18.4 nM.
`Cc1cc(C(=O)N(C)C)cc(F)c1C1=CCN([C@@H](C)c2cc3c(-n4cc(F)c(N)c(F)c4=O)ccnc3n2C)CC1` [Example 1m132, (S)-4-(1-(1-(4-(4-amino-3,5-difluoro-2-oxopyridin-1 (2H)-yl)-1-methyl-1H-pyrrolo[2,3-b]pyridin-2-yl)ethyl)-1,2,3,6-tetrahydropyridin-4-yl)-3-fluoro-N,N,5-trimethylbenzamide] gave an EC50 of 10.8 nM.
In the case of `[2H]C([2H])([2H])N(C(=O)c1cc(C)c(C2=CCN([C@@H](C)c3cc4c(-n5ccc(NC)cc5=O)ccnc4n3C)CC2)c(F)c1)C([2H])([2H])[2H]` [Example 1af83, (S)-3-fluoro-5-methyl-N,N-bis(methyl-d3)-4-(1-(1-(1-methyl-4-(4-(methylamino)-2-oxopyridin-1 (2H)-yl)-1H-pyrrolo[2,3-b]pyridin-2-yl)ethyl)-1,2,3,6-tetrahydropyridin-4-yl)benzamide], the EC50 is reported as 2.67 nM.
`CNc1ccn(-c2ccnc3c2cc(CN2CC=C(c4c(C)cc(C(=O)N(C)C)cc4F)CC2)n3C)c(=O)c1` [Example 1m56, 3-Fluoro-N,N,5-trimethyl-4-(1-((1-methyl-4-(4-(methylamino)-2-oxopyridin-1 (2H)-yl)-1H-pyrrolo[2,3-b]pyridin-2-yl)methyl)-1,2,3,6-tetrahydropyridin-4-yl)benzamide] showed an EC50 of 3.64 nM.
